# From patent US12017917B2, “Composition, particulate materials and methods for making particulate materials” (THE UNIVERSITY OF QUEENSLAND, priority 2015, dated 2024)
# What was measured:
# [1] = tested on: Escherichia coli (E. coli); experiment: In vitro antibacterial activity of VAN formulations (OD 600 nm); format: cell-based; settings: VAN content 25 μg ml^−1, after 18 h
# Method: The use of nanoparticles as a delivery vehicle for antibiotics provides a promising strategy through prolonged drug circulation half-life, increased availability of drugs interacting with membrane molecules and promoted sustained drug release. VAN is an antibiotic useful for the treatment of a number of bacterial infections since it inhibits the cell wall synthesis in susceptible bacteria. […] The in vitro antibacterial activity of VAN, MHS200-VAN and RMHS200-VAN was evaluated by monitoring the optical density (OD) at 600 nm of a bacterial suspension. E. coli (1×10^6 CFU mL^−1) was incubated in Luria-Bertani (LB) medium in a 1.5 ml centrifuge tube at various concentrations of VAN for 18 h. […] This value reduced to 20 μg ml^−1 for RMHS200-VAN which is lower than the dosage used with VAN conjugated MCM-41 (200 μg ml^−1) in in-vitro E. coli culture at 18 h. In a separate experiment, MHS200-VAN, RMHS200-VAN and free VAN with the same VAN content of 25 μg ml^−1 were incubated with 1×10^6 CFU mL^−1 E. Coli in LB media and OD was measured as a function of time.
# [2] = UV protection of ivermectin (HPLC); format: physicochemical; settings: free or loaded into particles, UV irradiation 3 h
# Method: To investigate the UV protection properties of the silica particles toward ivermectin these nano-formulations as well as pure (free) ivermectin were treated under UV irradiation for 3 h. The samples before and after UV irradiation were analysed using high performance liquid chromatography (HPLC) to identify their compositions. […] This may result from the fact that ivermectin is only partially loaded into the internal cavity of the MSHS-SS particles, resulting in only partial protection.
# [3] = tested on: E. coli; experiment: Long-term bacterial inhibition, bacteria kinetic test under batch culture; format: cell-based; settings: lysozyme 700 μg·mL^−1, 3 days
# [4] = tested on: E. coli; experiment: In vitro antibacterial activity of lysozyme formulations (OD); format: cell-based; settings: E. coli 5×10^6 CFU mL^−1, 24 h
# Method: The in vitro antibacterial activity of free lysozyme and lysozyme loaded silica particles formulated using the above procedure were compared by the optical density (OD) measurement. E. coli (5×10^6 CFU mL^−1) was incubated with various concentrations of lysozyme and corresponding lysozyme loaded silica particles for 24 h. […] In contrast, the MIC of free lysozyme towards E. coli cannot be achieved even at the concentration as high as […].
# [5] = UV-stability test of nano-spinosad (HPLC); format: physicochemical; settings: UV 365 nm, 2 h
# Method: In this test, 1.2 mg pure spinosad and 4.2 mg nano-spinosad-0.4 (containing 1.2 mg spinosad) were added in two transparent quartz containers, respectively. The using of quartz containers is to minimized the shielding of UV light from the containers. Each of the sample was placed under the UV light with a wavelength of 365 nm and power of 17.77 mV cm^−3. All samples were irradiated by the UV light for 2 hours. After the irradiation, the spinosad and its degradation products were extracted by acetonitrile (ACN) for three times and the final concentration was diluted to. 0.5 mg/ml dispersed in 1 ml distilled water. The UV degradation conditions of both pure spinosad and nano-spinosad-0.4 were tested by high-performance liquid chromatography (HPLC) using ACN as the mobile phase.
# The UV stability of nano-spinosad was studied. Both spinosad and nano-spinosad were irradiated under UV light (wavelength 365 nm, 17.77 mV/cm^3) for 2 h followed by HPLC which was used to monitor the product after UV treatment utilizing ACN as the extraction media and mobile phase. […] An additional peak at retention time of 1.5 min was also observed in the pure spinosad group, which can be attributed to the degraded product. This observation is in accordance with literature reports, indicating spinosad itself is UV labile.
# [6] = Release test of nano-spinosad in water (UV-Vis 248 nm); format: physicochemical; settings: 25° C.
# Method: In a release test, 2.67 mg nano-spinosad-X (containing 1 mg spinosad) was dispersed in 1 ml distilled water, respectively. The mixtures were kept at 25° C. incubator at 200 rpm. The supernatants were collected at different time and the released amount of spinosad was measured and evaluated by using a UV-Vis spectrophotometer at a wavelength of 248 nm. The release amount of pure spinosad in water was also tested using the same procedure.
# The release profile of both pure spinosad and nano-spinosad were tested in water. […] On the other hand, for pure spinosad, only 2.4% of spinosad was released at 5 min while the cumulative release is less than 8% even at 540 min. […] Consequently, the release behaviour of spinosad is improved compared to the pure spinosad. The fast release of a higher concentration of spinosad is expected to be beneficial for the development of an “effective-immediately” nano-spinosad formulation.
# [7] = tested on: cattle tick, Rhipicephalus microplus; experiment: Larval Immersion Test on cattle tick larvae; format: in vivo; settings: Assay 3, 24 h
# Method: The in vitro effects of spinosad and nano-spinosad on the cattle tick, Rhipicephalus microplus were evaluated. The test was conducted at Biosecurity Sciences Laboratory (Queensland Government) using a standard Larval Immersion Test using organic solvent to extract the actives.
# The test was conducted at Biosecurity Sciences Laboratory (Queensland Government) using a standard Larval Immersion Test. In the Larval Immersion Test, both spinosad and nano-Spinsad were firstly dissolved in organic solvent (2% Triton X-100 in acetone) to extract the actives for stock solution (10 mg/ml) and then be diluted in water. […] Three assays were conducted to narrow the LC ranges.
compound,measurement,setting,value
"CN[C@H](CC(C)C)C(=O)N[C@H]1C(=O)N[C@@H](CC(N)=O)C(=O)N[C@H]2C(=O)N[C@H]3C(=O)N[C@H](C(=O)N[C@H](C(=O)O)c4cc(O)cc(O)c4-c4cc3ccc4O)[C@H](O)c3ccc(c(Cl)c3)Oc3cc2cc(c3O[C@@H]2O[C@H](CO)[C@@H](O)[C@H](O)[C@H]2O[C@H]2C[C@](C)(N)[C@H](O)[C@H](C)O2)Oc2ccc(cc2Cl)[C@H]1O [free VAN, vancomycin]",bacterial growth over time (OD),[1],re-growth of bacteria
ivermectin [Free ivermectin],degradation of ivermectin after UV irradiation (HPLC),[2],fully degraded
lysozyme [free lysozyme],bacterial growth over time (OD),[3],time dependent bacterial growth
same,MIC towards E. coli,[4],> 2 mg
spinosad,UV degradation (HPLC degradation peak),[5],UV labile
same,spinosad released,[6]; at 5 min,2.4%
same,cumulative release of spinosad,[6]; at 540 min,less than 8%
same,LC50 value to larval cattle ticks,[7],54 ppm
same,LC99 value to larval cattle ticks,[7],196 ppm
